In US20050054018A1, “Activated checkpoint therapy and methods of use thereof” (priority 2002, published 2005):

Tests used:
MCF10A = test: Normal cell line, MCF10A; assay type: cell-based; details: Homo sapiens, MCF-10A; read-out: Normal Cell Lines, Breast MCF10A
Description: (§1) In this experiment, exponentially growing cells were seeded at 1000 cells/well and allowed to attach for 48 h. […] After 10-20 days, cells were fixed and stained with modified Wright-Giemsa stain.

DLD1 = test: Cancer cell line IC50, DLD1; assay type: cell-based; details: Homo sapiens, DLD-1; read-out: Cancer Cell Lines, IC50, Colon DLD1
Description: DLD1 cells were seeded into 6-well, 96-well plates and allowed to attach overnight. […] For the colony formation assay, colonies were allowed to grow for 14 days; MT assay cells continued in culture for an additional 2 days.

PARP = test: Western blot, PARP cleavage; assay type: cell-based, human; details: after 4 hours of exposure
[1] = tested on: human colon cancer cell line DLD1; test: Colony formation and MTT assay, DLD1; assay type: cell-based; details: DLD1, 4 hour exposure, 4-5 μM
Description: DLD1 cells were seeded into 6-well, 96-well plates and allowed to attach overnight. […] Control cells were treated with DMSO equivalent to the highest dose of β-Lapachone used. For the colony formation assay, colonies were allowed to grow for 14 days; MT assay cells continued in culture for an additional 2 days.

[2] = tested on: human colon carcinoma cells (DLD1); test: Flow cytometry sub-G1 apoptosis, DLD1; assay type: cell-based; details: DLD1, 2-4 μM, 24 h
Description: (§2) Cells were treated for 24 h, then were subjected to flow cytometric analysis after staining with propidium iodide.

MCF-7 = test: Cancer cell line IC50, MCF-7; assay type: cell-based; details: Homo sapiens, MCF7; read-out: Cancer Cell Lines, IC50, Breast MCF-7
Description: as §1

cytochrome c = test: Western blot, cytochrome c release in DLD1; assay type: cell-based, human
E2F [3] = test: Gel mobility shift assay, NCM460 nuclear proteins; assay type: cell-based, human; details: NCM460, 4 μM, up to 2 hours
From the text: (§3) The arrow denotes the location of the putative E2F protein-DNA complex.

[4] = tested on: human prostate cancer cells (PC-3); test: Colony survival, combination with GL331, PC-3; assay type: cell-based
From the text: (§4) The number of colonies in the control well (solvent-treated) was taken as 100% survival.

[5] = tested on: normal human Peripheral Blood Mononuclear Cells (PBMC); test: MTT assay, PBMC; assay type: cell-based; details: 0.5, 2, 4, and 8 μM, 24 h; fresh or proliferating PBMC
Description: Proliferating PBMC were generated by 72 h incubation with phytohemagglutinin (PHA) at 2 μg/mL.

HT-29 = test: Cancer cell line IC50, HT-29; assay type: cell-based; details: Homo sapiens, read-out: Cancer Cell Lines, IC50, Colon HT-29
[6] = tested on: human colon carcinoma cells (SW480); test: Flow cytometry sub-G1 apoptosis, SW480; assay type: cell-based; details: SW480, 2-4 μM, 24 h
Description: as §2

NCM460 = test: Normal cell line, NCM460; assay type: cell-based; details: Homo sapiens, read-out: Normal Cell Lines, Colon NCM460
SW480 = test: Cancer cell line IC50, SW480; assay type: cell-based; details: Homo sapiens, read-out: Cancer Cell Lines, IC50, Colon SW480
PaCa-2 = test: Cancer cell line IC50, PaCa-2; assay type: cell-based; details: Homo sapiens, read-out: Cancer Cell Lines, IC50, Pancreas PaCa-2
E2F [7] = test: Gel mobility shift assay, DLD1 nuclear proteins; assay type: cell-based, human; details: DLD1, 4 μM
From the text: as §3

[8] = tested on: human pancreatic cancer cells (Paca-2); test: Colony survival, combination with gemcitabine, Paca-2; assay type: cell-based; details: gemcitabine 5 μg/ml day 1 followed by β-lapachone 2 μM day 2
From the text: as §4

[9] = tested on: normal human colon cells (NCM460); test: Flow cytometry sub-G1 apoptosis, NCM460; assay type: cell-based; details: NCM460, 24 h
Description: as §2

[10] = tested on: human breast cancer cells (MCF-7); test: Colony formation assay, MCF-7; assay type: cell-based; details: MCF-7, 4 h treatment, 2-4 μM and higher, 10-20 days
Description: as §1

[11] = tested on: human multiple myeloma (MM) cells; test: MTT assay, multiple myeloma cells; assay type: cell-based; details: 4 μM, 24 h, all seven MM cell lines
[12] = tested on: normal human breast epithelial cells (MCF-10A); test: Colony formation assay, MCF-10A; assay type: cell-based; details: 4 h treatment, 10-20 days
Description: as §1

[13] = tested on: Normal Cell Lines vs Cancer Cell Lines; test: Fold selectivity, normal vs cancer cell lines; assay type: cell-based
A549 = test: Cancer cell line IC50, A549; assay type: cell-based; details: Homo sapiens, read-out: Cancer Cell Lines, IC50, Lung A549
human cancer cells = test: Combination with Taxol, cancer cell survival in vitro; assay type: cell-based; details: in the presence of β-Lapachone

| SMILES | IC50 (MCF10A) | IC50 (DLD1) | IC50 (MCF-7) | IC50 (HT-29) | IC50 (NCM460) | IC50 (SW480) | IC50 (PaCa-2) | Fold Selectivity [13] | IC50 (A549) | further results |
| --- | --- | --- | --- | --- | --- | --- | --- | --- | --- | --- |
| CC1(C)CCC2=C(O1)c1ccccc1C(=O)C2=O [β-lapachone, 3,4-dihydro-2,2-dimethyl-2H-naphtho[1,2-b]pyran-5,6-dione] | 5800 nM | 3600 nM | 1000 nM | 2100 nM | 8100 nM | 3300 nM | 1600 nM |  |  | PARP cleavage (PARP): cleavage of PARP; viable cells (colony formation and MTT assay) [1]: eliminates viable cells; apoptosis (sub-G1 fraction) [2]: induce apoptosis; time of peak cytochrome c release (cytochrome c; DLD1): 2 h; exposure time to cytochrome c release (cytochrome c; DLD1, earliest release): 1 h; level of E2F expression (E2F [3]): essentially unchanged; colony survival, combination with GL331 ([4]; β-lapachone 2 μM and GL331 2 μM simultaneously, 4 h): complete eradication of colony forming units; colony survival, combination with GL331 ([4]; β-lapachone 2 μM day 1 followed by GL331 2 μM day 2): complete eradication of colony forming units; cytotoxicity to PBMC growth (MTT) [5]: No cytotoxicity; apoptosis (sub-G1 fraction) [6]: induce apoptosis; nuclear E2F protein levels vs. starting levels (E2F [7]; 0.5 hours): increased; nuclear E2F protein levels vs. starting levels (E2F [7]; 1 hour): markedly elevated; colony survival, combination with gemcitabine [8]: complete eradication of colony forming units; apoptosis (sub-G1 fraction) [9]: no apoptosis; colonies [10]: essentially complete elimination of colonies; cell viability in cultures (MTT) [11]: significantly decreased; number of colonies [12]: no reduction in the number of colonies; size of the colonies [12]: smaller |
| CC(C)=CCC1CC2=C(OC1(C)C)c1ccccc1C(=O)C2=O (stereo not shown) [3,4-dihydro-2,2-dimethyl-3-(3-methyl-2-butenyl)-2H-naphtho[1,2-b]pyran-5,6-dione] |  | 1300 nM | 1000 nM |  | 10000 nM | 1800 nM |  | ˜7 |  |  |
| CC1(C)CCC2=C(S1)c1ccccc1C(=O)C2=O [3,4-dihydro-2,2-dimethyl-2H-naphtho[1,2-b]thiopyran-5,6-dione] | 6700 nM | 2000 nM | 1000 nM | 1800 nM | 7500 nM | 1500 nM | 1500 nM | ˜4.5 | 1700 nM |  |
| CC1(C)CCSC2=C1C(=O)C(=O)c1ccccc12 [3,4-dihydro-4,4-dimethyl-2H-naphtho[1,2-b]thiopyran-5,6-dione] | 6300 nM |  |  | 1600 nM | 6000 nM |  | 1200 nM | ˜4 | 1600 nM |  |
| CC(=O)O[C@H]1C(=O)[C@@]2(C)[C@H]([C@H](OC(=O)c3ccccc3)[C@]3(O)C[C@H](OC(=O)[C@H](O)[C@@H](NC(=O)c4ccccc4)c4ccccc4)C(C)=C1C3(C)C)[C@]1(OC(C)=O)CO[C@@H]1C[C@@H]2O [Taxol®, paclitaxel] |  |  |  |  |  |  |  |  |  | reduction of effective Taxol concentration (human cancer cells): at least 10 fold |
